# Assay results taken from ChEMBL document CHEMBL4184309, “Synthesis and biological evaluation of novel carbazole-rhodanine conjugates as topoisomerase II inhibitors” (Bioorg Med Chem Lett, 2018).
# Active and inactive are the calls of the source. The calls are words filed in the database; no cut-off is given here.
# What was measured:
# [1] = biological target: T1, Topoisomerase I (Bos taurus) (UniProt Q2HPH0); assay: Inhibition of calf thymus topoisomerase-1 assessed as reduction in relaxation of pBR322 plasmid DNA at 100 uM measured after 30 mins by agarose gel electrophoresis
# T1 sequence (whole entry): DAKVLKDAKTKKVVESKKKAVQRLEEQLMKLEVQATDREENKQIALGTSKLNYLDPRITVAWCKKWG
# [2] = system: HeLa; assay: Cytotoxicity against human HeLa cells after 48 hrs by MTT assay; format: functional, cell-based
# [3] = system: A549; assay: Cytotoxicity against human A549 cells after 48 hrs by MTT assay; format: functional, cell-based; details: A549, 48 h
# [4] = system: K562; assay: Cytotoxicity against human K562 cells after 48 hrs by MTT assay; format: functional, cell-based; details: K562, 48 h
# [5] = system: HL-60; assay: Cytotoxicity against human HL60 cells after 48 hrs by MTT assay; format: functional, cell-based; details: HL-60, 48 h
# [6] = biological target: DNA topoisomerase 2-alpha (Homo sapiens) (UniProt P11388); assay: Inhibition of human topoisomerase-2 assessed as reduction in relaxation of pBR322 plasmid DNA at 20 uM measured after 30 mins by agarose gel electrophoresis
# [7] = biological target: DNA topoisomerase 2-alpha (Homo sapiens) (UniProt P11388); assay: Inhibition of human topoisomerase-2 assessed as reduction in relaxation of pBR322 plasmid DNA at 10 uM measured after 30 mins by agarose gel electrophoresis
# [8] = biological target: DNA topoisomerase 1 (Homo sapiens) (UniProt P11387); assay: Inhibition of human topoisomerase-1 assessed as DNA intercalation by measuring relaxation of supercoiled pBR322 plasmid DNA after 6 mins by agarose gel electrophoresis
# [9] = biological target: DNA topoisomerase 2-alpha (Homo sapiens) (UniProt P11388); assay: Poison activity at human topoisomerase-2 assessed as linear DNA formation by measuring relaxation of supercoiled pBR322 plasmid DNA at 50 uM after 6 mins by agarose gel electrophoresis
# [10] = biological target: DNA topoisomerase 2-alpha (Homo sapiens) (UniProt P11388); assay: Inhibition of human topoisomerase-2 assessed as DNA intercalation by measuring relaxation of supercoiled pBR322 plasmid DNA at 0.3 to 2.5 uM after 6 mins by agarose gel electrophoresis
# DNA topoisomerase 2-alpha (Homo sapiens), sequence (P11388 whole entry): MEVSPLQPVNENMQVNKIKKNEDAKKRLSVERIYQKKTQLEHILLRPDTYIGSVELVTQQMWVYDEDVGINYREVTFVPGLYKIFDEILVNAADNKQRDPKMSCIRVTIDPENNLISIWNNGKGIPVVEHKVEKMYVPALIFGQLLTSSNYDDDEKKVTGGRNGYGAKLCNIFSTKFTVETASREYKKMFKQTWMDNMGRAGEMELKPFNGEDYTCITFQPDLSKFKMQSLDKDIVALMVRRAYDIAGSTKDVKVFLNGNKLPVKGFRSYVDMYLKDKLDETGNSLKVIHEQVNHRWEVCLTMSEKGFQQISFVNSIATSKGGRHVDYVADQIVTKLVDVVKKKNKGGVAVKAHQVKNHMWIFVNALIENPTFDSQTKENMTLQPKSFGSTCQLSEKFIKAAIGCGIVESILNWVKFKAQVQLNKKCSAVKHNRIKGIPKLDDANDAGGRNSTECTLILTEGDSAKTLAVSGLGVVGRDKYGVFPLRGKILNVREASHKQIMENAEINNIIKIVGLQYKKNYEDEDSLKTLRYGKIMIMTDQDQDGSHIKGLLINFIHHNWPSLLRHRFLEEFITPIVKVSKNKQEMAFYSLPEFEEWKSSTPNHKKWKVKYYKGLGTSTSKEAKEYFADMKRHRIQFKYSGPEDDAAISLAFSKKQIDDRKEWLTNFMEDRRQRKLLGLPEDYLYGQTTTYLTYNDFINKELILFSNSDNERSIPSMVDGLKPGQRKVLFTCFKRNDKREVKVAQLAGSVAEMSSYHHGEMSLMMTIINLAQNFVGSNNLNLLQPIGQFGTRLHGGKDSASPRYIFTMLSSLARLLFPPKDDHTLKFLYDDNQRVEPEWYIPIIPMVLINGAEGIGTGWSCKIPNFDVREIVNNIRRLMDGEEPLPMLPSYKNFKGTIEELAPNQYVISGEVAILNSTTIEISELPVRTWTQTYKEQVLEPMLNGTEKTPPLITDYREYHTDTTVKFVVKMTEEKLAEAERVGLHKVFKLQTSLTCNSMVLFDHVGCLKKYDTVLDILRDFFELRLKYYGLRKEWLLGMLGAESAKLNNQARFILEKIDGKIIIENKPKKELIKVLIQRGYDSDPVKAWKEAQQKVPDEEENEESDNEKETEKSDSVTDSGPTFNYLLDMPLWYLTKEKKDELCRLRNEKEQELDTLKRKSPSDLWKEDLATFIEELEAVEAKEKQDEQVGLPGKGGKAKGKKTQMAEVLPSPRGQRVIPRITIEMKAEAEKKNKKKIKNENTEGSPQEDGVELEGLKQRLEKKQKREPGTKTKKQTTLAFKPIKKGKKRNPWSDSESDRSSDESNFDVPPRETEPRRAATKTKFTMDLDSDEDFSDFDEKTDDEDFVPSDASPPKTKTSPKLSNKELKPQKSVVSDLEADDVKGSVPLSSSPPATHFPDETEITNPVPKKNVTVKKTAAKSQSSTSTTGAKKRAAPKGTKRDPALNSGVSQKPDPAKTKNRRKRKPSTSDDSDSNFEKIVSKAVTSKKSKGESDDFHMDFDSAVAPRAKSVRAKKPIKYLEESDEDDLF
# DNA topoisomerase 1 (Homo sapiens), sequence (P11387 whole entry, looked up): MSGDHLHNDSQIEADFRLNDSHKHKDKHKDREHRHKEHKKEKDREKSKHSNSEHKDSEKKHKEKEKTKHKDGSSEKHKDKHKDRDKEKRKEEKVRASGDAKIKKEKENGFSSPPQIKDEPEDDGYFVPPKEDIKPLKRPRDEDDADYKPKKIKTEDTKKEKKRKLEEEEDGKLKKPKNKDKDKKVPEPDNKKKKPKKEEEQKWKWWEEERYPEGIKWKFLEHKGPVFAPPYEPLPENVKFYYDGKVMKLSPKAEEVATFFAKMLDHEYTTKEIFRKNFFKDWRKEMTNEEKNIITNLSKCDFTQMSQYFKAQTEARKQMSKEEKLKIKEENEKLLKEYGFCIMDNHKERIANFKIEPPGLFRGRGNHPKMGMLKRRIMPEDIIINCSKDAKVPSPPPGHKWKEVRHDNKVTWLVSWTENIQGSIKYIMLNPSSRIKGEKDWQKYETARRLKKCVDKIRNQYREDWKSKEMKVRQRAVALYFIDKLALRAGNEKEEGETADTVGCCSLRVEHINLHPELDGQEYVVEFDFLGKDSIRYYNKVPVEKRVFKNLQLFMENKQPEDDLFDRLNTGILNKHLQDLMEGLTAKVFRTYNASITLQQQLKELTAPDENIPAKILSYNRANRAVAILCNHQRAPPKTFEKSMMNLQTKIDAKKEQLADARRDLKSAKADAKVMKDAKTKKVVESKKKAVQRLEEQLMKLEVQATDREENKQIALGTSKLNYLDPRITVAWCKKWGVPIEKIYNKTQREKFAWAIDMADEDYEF
SMILES,inhibition [1],IC50 [2],IC50 [3],IC50 [4],IC50 [5],inhibition [6],inhibition [7],inhibition [8],Activity [9],inhibition [10]
O=C(O)CN1C(=O)/C(=C/c2ccc3c(c2)c2ccccc2n3Cc2ccc(F)cc2F)SC1=S,inactive,> 50 µM,22.6 µM,12.6 µM,3.84 µM,inactive,–,–,–,–
COc1cc([C@@H]2c3cc4c(cc3[C@@H](O[C@@H]3O[C@@H]5CO[C@@H](C)O[C@H]5[C@H](O)[C@H]3O)[C@H]3COC(=O)[C@H]23)OCO4)cc(OC)c1O [ETOPOSIDE],–,32 µM,–,–,–,Active,–,–,–,–
O=C(O)CN1C(=O)/C(=C/c2ccc3c(c2)c2ccccc2n3Cc2ccc([N+](=O)[O-])cc2)SC1=S,inactive,7.51 µM,3.94 µM,2.7 µM,0.96 µM,Active,Active,–,–,–
O=C(O)CN1C(=O)/C(=C/c2ccc3c(c2)c2ccccc2n3Cc2ccc(F)cc2)SC1=S,inactive,> 50 µM,> 50 µM,19.1 µM,8.57 µM,Active,–,–,–,–
O=C(O)CN1C(=O)/C(=C/c2ccc3c(c2)c2ccccc2n3Cc2ccc(C(F)(F)F)cc2)SC1=S,inactive,8.2 µM,3.4 µM,2.16 µM,0.71 µM,Active,–,Dose-dependent effect,inactive,–
O=C(O)CN1C(=O)/C(=C/c2ccc3c(c2)c2ccccc2n3Cc2ccccc2)SC1=S,inactive,> 50 µM,32.2 µM,21.4 µM,14.6 µM,inactive,–,–,–,–
O=C(O)CN1C(=O)/C(=C/c2ccc3c(c2)c2ccccc2n3Cc2ccc(Br)cc2)SC1=S,inactive,> 50 µM,> 50 µM,28 µM,12.7 µM,inactive,–,–,–,–
N#Cc1ccc(Cn2c3ccccc3c3cc(/C=C4\SC(=S)N(CC(=O)O)C4=O)ccc32)cc1,inactive,5.06 µM,2.18 µM,1.85 µM,0.43 µM,Active,–,Dose-dependent effect,inactive,–
O=C(O)CN1C(=O)/C(=C/c2ccc3c(c2)c2ccccc2n3Cc2ccc(Br)cc2F)SC1=S,inactive,11.7 µM,9.44 µM,6.92 µM,3.51 µM,Active,–,–,–,–
O=C(O)CN1C(=O)/C(=C/c2ccc3c(c2)c2ccccc2n3Cc2cccc(F)c2)SC1=S,inactive,> 50 µM,19.8 µM,12.8 µM,8.29 µM,inactive,–,–,–,–
Cc1ccc(Cn2c3ccccc3c3cc(/C=C4\SC(=S)N(CC(=O)O)C4=O)ccc32)cc1,inactive,> 50 µM,> 50 µM,29.6 µM,17.8 µM,inactive,–,–,–,–
CC[C@@]1(O)C(=O)OCc2c1cc1n(c2=O)Cc2cc3ccccc3nc2-1,Active,–,–,–,–,–,–,–,–,–
CC[n+]1c(-c2ccccc2)c2cc(N)ccc2c2ccc(N)cc21,–,–,–,–,–,–,–,–,–,Active
O=C(O)CN1C(=O)/C(=C/c2ccc3c(c2)c2ccccc2n3Cc2ccccc2F)SC1=S,inactive,21.3 µM,13.6 µM,11.8 µM,1.82 µM,inactive,–,–,–,–
O=C(O)CN1C(=O)/C(=C/c2ccc3c(c2)c2ccccc2n3Cc2ccc(F)c(F)c2)SC1=S,inactive,15.1 µM,12.4 µM,7.31 µM,4.17 µM,Active,–,–,–,–
O=C(O)CN1C(=O)/C(=C/c2ccc3c(c2)c2ccccc2n3Cc2ccc(Cl)cc2)SC1=S,inactive,28.3 µM,16.2 µM,13.4 µM,4.86 µM,inactive,–,–,–,–
